Assay results reported in patent US10947229B2, “Dimethyl amino azetidine amides as JAK inhibitors” (THERAVANCE BIOPHARMA R&D IP, LLC, priority 2018, dated 2021).

Tests used:
[1] = Lung and plasma drug concentration in the IL-13 pSTAT6 mouse model; type: in vivo; settings: lung to plasma ratio at 5 hours
Experimental: Adult Balb/c mice from Harlan were used in the assay. […] Animals were placed in lateral recumbency post dose and monitored for full recovery from anesthesia before being returned to their home cage. Four hours later, animals were once again briefly anesthetized and challenged with either vehicle or IL-13 (0.03 μg total dose delivered, 50 μL total volume) via oral aspiration before being monitored for recovery from anesthesia and returned to their home cage. One hour after vehicle or IL-13 administration, whole blood and lungs were collected for both pSTAT6 detection in lung homogenates using a Perkin Elmer AlphaLISA® SureFire® Ultra™ HV p-STAT6 (Tyr641) assay kit and for total drug concentration analysis in both lung and plasma. Blood samples were centrifuged (Eppendorf centrifuge, 5804R) for 4 minutes at approximately 12,000 rpm at 4° C. to collect plasma. […] Plasma and lung levels of test compound were determined by LC-MS analysis against analytical standards constructed into a standard curve in the test matrix. A lung to plasma ratio was determined as the ratio of the lung concentration in ng/g to the plasma concentration in ng/mL at 5 hours.

[2] = system: IL-12 stimulated STAT4 phosphorylation in CD3+ T cells; assay: Cellular JAK potency assay: inhibition of IL-12-induced pSTAT4; type: cell-based; settings: T-cell; CD3+ T cells from human whole blood; read-out: pIC50, inhibition of IL-12-induced pSTAT4 (converted)
Experimental: The potency of test compounds for inhibition of interleukin-12 (IL-12) stimulated STAT4 phosphorylation was measured in CD3-positive (CD3+) T cells derived from human whole blood (Stanford Blood Center) using flow cytometry. Because IL-12 signals through JAK, this assay provides a measure of JAK cellular potency. CD3+ T cells were identified using a phycoerythrin (PE) conjugated anti-CD3 antibody (clone UCHT1, BD Biosciences), and an Alexa Fluor 647 conjugated anti-pSTAT4 antibody (clone 38/p-Stat4, BD Biosciences) was used to detect STAT4 phosphorylation. Human peripheral blood mononuclear cells (PBMC) were isolated from human whole blood of healthy donors using a ficoll gradient. […] After incubation, cells were washed twice in FACS buffer before being analyzed using a MACSQuant flow cytometer (Miltenyi). To determine the inhibitory potency of the test compound, the median fluorescent intensity (MFI) of pSTAT4 was measured in CD3+ T cells. IC50 values were determined from analysis of the inhibition curves of MFI vs compound concentration. Data are expressed as pIC50 (negative decadic logarithm IC50) values.

[3] = system: IL-27 induced CXCL9 secretion; assay: Inhibition of IL-27 induced CXCL9 in human 3D airway cultures; type: cell-based; settings: 192 h, 8 days, 4 donors
Experimental: (§1) EpiAirway tissue cultures were obtained from Mattek (AIR-100). Cultures were derived from asthmatic donors. In a cell culture insert, human derived tracheal/bronchial epithelial cells were grown and differentiated on a porous membrane support, allowing an air-liquid interface with warmed culture medium below the cells and a gaseous test atmosphere above. Tissues were cultured in maintenance media ([…]) in a 37° C., 5% CO2 humidified incubator. Four donors were tested. On Day 0, tissue cultures were treated with test compounds in liquid interface at 10 μM, 1 μM and/or 0.1 μM. Compounds were diluted in dimethyl sulfoxide (DMSO, Sigma) to a final concentration of 0.1%. DMSO at 0.1% was used as a vehicle control. […] Tissue cultures were maintained for 8 days. Media was replaced every 2 days with fresh media containing compounds and IFNγ or IL-27. On Day 8, tissue cultures and supernatants were collected for analysis. Supernatant samples were assayed for CXCL10 (IP-10) and CXCL9 (MIG) using luminex analysis (EMD Millipore). Data is expressed as % Inhibition+/-standard deviation (±STDV). Percent inhibition was determined by compound inhibitory potency against IFNγ or IL-27 induced CXCL10 or CXCL9 secretion compared to vehicle treated cells. Data is the average from 4 donors.

[4] = system: IL-27 induced CXCL10 secretion; assay: Inhibition of IL-27 induced CXCL10 in human 3D airway cultures; type: cell-based; settings: 192 h, 8 days, 4 donors
Experimental: as §1

For `CCc1cc(O)ccc1-c1ccc2c(-c3nc4c([nH]3)CN(C(C)C)[C@H](C(=O)N3CC(N(C)C)C3)C4)n[nH]c2c1` [Compound 1, (S)-(3-(dimethylamino)azetidin-1-yl)(2-(6-(2-ethyl-4-hydroxyphenyl)-1H-indazol-3-yl)-5-isopropyl-4,5,6,7-tetrahydro-3H-imidazo[4,5-c]pyridin-6-yl)methanone], the “exposure in lung versus plasma (in words)” value [1] was “significantly more exposure in the lung than exposure in plasma”, the IC50 [2] was 1 µM and the inhibition at 0.1 µM ([3]; 0.1 μM) was 52%. The inhibition at 1 µM ([3]; 1 μM) was 97%, the inhibition at 10 µM ([3]; 10 μM) was 100% and the inhibition at 0.1 µM ([4]; 0.1 μM) was 25%. The inhibition at 1 µM ([4]; 1 μM) was 98% and the inhibition at 10 µM ([4]; 10 μM) was 100%.
